US12187705B2, “Heteroaryl-triazole and heteroaryl-tetrazole compounds as pesticides” (Bayer Aktiengesellschaft, priority 2018, dated 2025)

What was measured:
Assay type in all cases: in vivo
[1] = tested on: Aedes aegypti strain MONHEIM; experiment: Aedes aegypti test (AEDSAE surface treatment & contact assay); settings: 24 hours after contact, read-out: efficacy (mortality); for mortality at 4 mg/m2: surface concentration 4 mg/m^2, 30 minutes exposure; for mortality at 20 mg/m2: surface concentration 20 mg/m^2, 30 minutes exposure
How it was run: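 Compound dissolved in acetone (2 mg/ml) with 2000 ppm rapeseed oil methyl ester and dried onto a glazed tile. Adult mosquitoes held on the treated surface for 30 minutes exposure. Percent mortality scored 24 hours after contact.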

Diabrotica balteata = Diabrotica balteata spray test; settings: Diabrotica balteata, 168 h; 160 μg/well, wheat seeds, after 7 days; read-out: efficacy (seedlings grown)
How it was run: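 Wheat seeds germinated 1 day on agar were sprayed with compound diluted in water with 1000 ppm emulsifier, then infested with 10-20 Diabrotica balteata larvae. Efficacy in % scored after 7 days: 100% = seedlings grown as untreated, uninfected control; 0% = no seedlings grown.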

Spodoptera frugiperda = Spodoptera frugiperda spray test; settings: in Zea mays, 168 h
How it was run: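 Caterpillars are placed on sprayed, dried maize leaf sections. Sprays contain compound diluted in water with emulsifier at 1000 ppm; mortality in % is determined 7 days later.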

Myzus persicae [2] = experiment: Myzus persicae spray test; settings: in Brassica rapa, foliar, 120 h
How it was run: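 Chinese cabbage leaf disks infested with all aphid instars were sprayed with compound diluted in water containing emulsifier (1000 ppm). Mortality (%) was scored after 5 days, 100% meaning all aphids killed.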

Rhipicephalus sanguineus = Rhipicephalus sanguineus in-vitro contact test with adult brown dog ticks; settings: Rhipicephalus sanguineus; 5 μg/cm^2 (=500 g/ha), after 48 hours; read-out: efficacy (ticks dead or moribund)
Protocol: Rhipicephalus sanguineus—In-Vitro Contact Test with Adult Brown Dog Ticks
9 mg compound is solved in 1 ml acetone and diluted with acetone to the desired concentration. 250 μl of the test solution is filled in 25 ml glass test tubes and homogeneously distributed on the inner walls by rotation and tilting on a shaking device (2 h at 30 rpm). With a compound concentration of 900 ppm, an inner surface of 44.7 cm^2 and a homogeneous distribution, a dose of 5 μg/cm^2 is achieved.
After the solvent has evaporated, each test tube is filled with 5-10 adult brown dog ticks (Rhipicephalus sanguineus), closed with a perforated lid and incubated in a lying position at room temperature and relative humidity. After 48 hours efficacy is determined. The ticks are patted on the ground of the tubes and are incubated on a heating plate at 45-50° C. for at most 5 minutes. Immotile or uncoordinated moving ticks, which are not able to escape the heat by climbing upwards, are marked as dead or moribund.
An efficacy of 100% means all ticks are dead or moribund; 0% means no ticks are dead or moribund.

Ctenocephalides felis = Ctenocephalides felis oral test; settings: Ctenocephalides felis, in Bos taurus, po, 48 h
How it was run: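 About 20 adult unfed fleas fed through parafilm on cattle blood containing compound (DMSO concentrate diluted in blood); blood held at 37° C., fleas at room temperature. Mortality in % scored after 2 days (100% = all killed).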

Myzus persicae [3] = experiment: Myzus persicae oral test; settings: 120 h
How it was run: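 Feeding test: compound diluted in water was combined with IPL41 insect medium (33%+15% sugar) under a parafilm seal. A mixed population of green peach aphids fed through the membrane. Mortality (%) was scored after 5 days.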

[4] = tested on: Musca domestica strain WHO-N; experiment: Musca domestica test (MUSCDO surface treatment & contact assay); settings: 24 hours after contact, read-out: efficacy (mortality); for mortality at 20 mg/m2: surface concentration 20 mg/m^2, 30 minutes exposure
Protocol: Musca domestica Test (MUSCDO Surface Treatment & Contact Assay)
Solvent: Aceton+2000 ppm rapeseed oil methyl ester (RME)
In order to produce a sufficient, active ingredient containing solution it is necessary to solve the test-compound in the solvent-mix (Acetone at 2 mg/ml/RME 2000 ppm). This solution is pipetted onto a glazed tile and after evaporation of the Acetone, adult flies of the species Musca domestica strain WHO-N are placed onto the dried surface. The exposure time is 30 minutes.
Mortality in percent (%) is determined 24 hours after contact to the treated surface. 100% mortality means that all test-insects are dead, whereas 0% means that not a single insect died.

Boophilus microplus = Boophilus microplus injection test; settings: Rhipicephalus microplus, 168 h, 20 μg/animal, egg deposition after 7 days, read-out: efficacy (infertile eggs)
How it was run: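 Engorged adult female ticks, five per dose, received 1 μl of compound in DMSO injected into the abdomen and were kept in a climate chamber. Fertile egg deposition was checked after 7 days, with eggs of unclear fertility held until hatching at about 42 days. Efficacy 100% = all eggs infertile, 0% = all fertile.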

| SMILES | mortality at 4 mg/m2 [1] [%] | mortality at 20 mg/m2 [1] [%] | pest or weed control at 160 µg/disc, 160 µg/well (Diabrotica balteata) [%] | mortality at 500 g/ha (Spodoptera frugiperda) [%] | mortality at 500 g/ha (Myzus persicae [2]) [%] | pest or weed control at 5 µg/cm2, 5 µg/cm2 (Rhipicephalus sanguineus) [%] | mortality at 100 ppm (Ctenocephalides felis) [%] | mortality at 4 ppm (Myzus persicae [3]) [%] | mortality at 20 mg/m2 [4] [%] | pest or weed control at 0.02 mg (Boophilus microplus) [%] | mortality at 4 mg/m2 ([4]; surface concentration 4 mg/m^2, 30 minutes exposure) [%] |
| --- | --- | --- | --- | --- | --- | --- | --- | --- | --- | --- | --- |
| CCN(C(=O)c1cc(Cl)cc(S(C)(=O)=O)c1)C(C)c1ncnn1-c1ncccn1 (stereo not drawn) [Example I-040, 3-chloro-N-ethyl-5-(methylsulfonyl)-N-{1-[1-(pyrimidin-2-yl)-1H-1,2,4-triazol-5-yl]ethyl}benzamide] | 80 to 100 | 90 to 100 | 100 | 100 | 90 | 100 | 100 | 100 | 80 to 100 | 100 | – |
| C[C@@H](NC(=O)c1cc(Cl)cc(S(=O)(=O)C2CC2)c1)c1ncnn1-c1ncccn1 [Example I-042] | 80 to 100 | 90 to 100 | 100 | 83 | 90 | 80 | 100 | 100 | 80 to 100 | 100 | 80 to 100 |
